The values below come from US20120288442A1, “Nuclear Imaging Method Using Molecular Target Detection Agent for Liver Fibrosis” (ATOMIC ENERGY COUNCIL-INSTITUTE OF NUCLEAR ENERGY RESEARCH, priority 2011, published 2012).

The target of this assay is T1, CB1 receptor of liver fibrosis cell (Mus musculus, UniProt P47746).
T1 construct: from tissue; host or cells: liver of living mice (one fibrotic, one normal), in vivo imaging
Kind of assay: fluorescence imaging of a mouse having liver fibrosis and a normal mouse with Tocrifluor. The format is in vivo. To be noted: for a 543 nm light; FIG. 3B and FIG. 3C.

T1 sequence (P47746 whole entry): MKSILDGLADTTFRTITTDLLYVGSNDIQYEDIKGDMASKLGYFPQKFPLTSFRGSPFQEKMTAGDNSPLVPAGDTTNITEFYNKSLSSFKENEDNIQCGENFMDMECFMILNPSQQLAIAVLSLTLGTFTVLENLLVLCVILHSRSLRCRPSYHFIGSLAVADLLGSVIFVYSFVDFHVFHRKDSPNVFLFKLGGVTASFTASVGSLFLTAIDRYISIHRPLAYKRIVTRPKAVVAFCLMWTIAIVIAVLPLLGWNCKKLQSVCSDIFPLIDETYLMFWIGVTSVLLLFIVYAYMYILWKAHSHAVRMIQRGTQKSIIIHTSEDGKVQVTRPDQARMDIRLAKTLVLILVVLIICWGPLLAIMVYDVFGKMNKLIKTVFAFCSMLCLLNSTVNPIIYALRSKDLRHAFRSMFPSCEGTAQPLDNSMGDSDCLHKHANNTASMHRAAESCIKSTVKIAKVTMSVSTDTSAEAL

As to “N-(Piperidin-1-yl)-5-(4-(4-(3-(5-carboxamidotetramethyl rhodaminyl)propyl))phenyl)-1-(2,4-dichlorophenyl)-4-methyl-1H-pyrazole-3-carboxamide [Tocrifluor]”, the “fluorescence found at wavelength” value was 590 nm.
